Measurements reported in patent publication EP0942721B1, “LIQUID COMPOSITION COMPRISING AN HIV PROTEASE INHIBITOR AND A C12-C18 FATTY ACID” (Abbott Laboratories, priority 1996, dated 1998).

Experiment: Oral bioavailability studies in dogs
Type: in vivo, beagle dogs
Settings: dog, administered as an unformulated solid in a capsule dosage form, 5 mg/kg oral dose in dogs
Procedure: Dogs (beagle dogs, mixed sexes, weighing 7-14 kg) were fasted overnight prior to dosing, but were permitted water ad libitum. Each dog received a 100 µg/kg subcutaneous dose of histamine approximately 30 minutes prior to dosing. Each dog received a single solid dosage form corresponding to a 5 mg/kg dose of the drug. The dose was followed by approximately 10 milliliters of water. Blood samples were obtained from each animal prior to dosing and 0.25, 0.5, 1.0,1.5, 2, 3, 4, 6, 8, 10 and 12 hours after drug administration. The plasma was separated from the red cells by centrifugation and frozen (-30°C) until analysis. Concentrations of parent drug were determined by reverse phase HPLC with low wavelength UV detection following liquid-liquid extraction of the plasma samples. The parent drug area under the curve was calculated by the trapezoidal method over the time course of the study. The absolute bioavailability of each test composition was calculated by comparing the area under the curve after oral dosing to that obtained from a single intravenous dose. Each capsule or capsule composition was evaluated in a group containing at least six dogs; the values reported are averages for each group of dogs.

Row | bioavailability at 12 h (in vivo) [%] | bioavailability (both sexes, beagle, plasma) [%] | Structure (SMILES)
1 | < 2 | – | CC(C)c1nc(CN(C)C(=O)N[C@H](C(=O)N[C@@H](Cc2ccccc2)C[C@H](O)[C@H](Cc2ccccc2)NC(=O)OCc2cncs2)C(C)C)cs1 [bis-tosylate of compound III]
2 | – | < 2 | CC(C)c1nc(CN(C)C(=O)N[C@H](C(=O)N[C@@H](Cc2ccccc2)C[C@H](O)[C@H](Cc2ccccc2)NC(=O)OCc2cncs2)C(C)C)cs1 [compound III, (2S,3S,5S)-5-(N-(N-((N-Methyl-N-((2-isopropyl-4-thiazolyl)methyl)-amino)carbonyl)valinyl)amino)-2-(N-((5-thiazolyl)methoxycarbonyl)amino)-1,6-diphenyl-3-hydroxyhexane]
